The results in this text go back to US4892865A, “Pyrrolo[2,3-d]pyrimidine nucleosides as antiviral agents” (The Regents of the University of Michigan, priority 1987, dated 1990).

Read-outs that look alike come from different tables or passages of the source.

In series [1] the test system is Human Cytomegalovirus (HCMV). Nature of the series: HCMV plaque reduction in HFF cells. In kind it is cell-based, HCMV (Towne strain, isolate PO); human foreskin fibroblasts. The note with it: read-out: 50% Inhibitory Concentration, Virus Tested: HCMV. The protocol: (§1) KB cells, an established human cell line derived from an epidermoid oral carcinoma, were routinely grown in minimal essential medium (MEM) with Hanks salts [MEM(H)] supplemented with 5% fetal bovine serum. African green monkey kidney (BSC-1) cells and diploid human foreskin fibroblasts (HFF cells) were grown in MEM with Earle's salts [MEM(E)] supplemented with 10% fetal bovine serum. Cells were passaged according to conventional procedures as described in Shipman, C., Jr.; Smith, S. H.; Carlson, R. H.; Drach, J. C. Antimicrob. Agents Chemother., 1976, 9, 120. The plaque-purified isolate, PO, of the Towne strain of HCMV was used in all experiments and was a gift of Dr. Mark Stinski, University of Iowa. The S-148 strain of HSV-1 was provided by Dr. T. W. Schafer of Schering Corp. Stock preparations of HCMV and HSV-1 were prepared and titered as described in Turk, S. R.; Shipman, C., Jr.; Nassari, R.; Genzlinger, G.; Krawczyk, S. H.; Townsend, L. B.; Drach, J. C. Antimicrob. Agents Chemother., 1987, 31, 544.
(§2) HCMV plaque reduction experiments were performed using monolayer cultures of HFF cells by a procedure similar to that referenced above for titration of HCMV, with the exceptions that the virus inoculum (0.2 ml) contained approximately 50 PFU of HCMV and the compounds to be assayed were dissolved in the overlay medium. HSV-1 plaque reduction experiments were performed using monolayer cultures of BSC-1 cells. The assay was performed exactly as referenced above for HSV-1 titration assays except that the 0.2 ml of virus suspension contained approximately 100 PFU of HSV-1 and the compounds to be tested were dissolved in the overlay medium.
(§3) Dose-response relationships were constructed by linearly regressing the percent inhibition of parameters derived in the preceding sections against log drug concentrations. 50% inhibitory (I50) concentrations were calculated from the regression lines. The three I50 concentrations for inhibition of DNA, RNA and protein synthesis were averaged to give the values reported in Table I for KB cell cytotoxicity. Samples containing positive controls (acyclovir, ganciclovir, or vidarabine) were used in all assays. Results from sets of assays were rejected if inhibition by the positive control deviated from its mean response by more than 1.5 standard deviations.

Series [2] relates to Herpes Virus Type 1 (HSV-1). Description: HSV-1 plaque reduction in BSC-1 cells. It is filed as cell-based. The note with it: read-out: 50% Inhibitory Concentration, Virus Tested: HSV-1. On the procedure:
as §1, §2, §3
^a In experiments with HSV1 both the HF and 148 strains were used.

Series [3] is described as follows: Visual cytotoxicity in uninfected HFF cells. It is filed as cell-based. The note with it: human; visual cytotoxicity scored on uninfected HFF cells at time of HCMV plaque determination; read-out: 50% Inhibitory Concentration, Cytotoxicity: HFF. The protocol: as §1
(§4) Two basic tests for cellular cytotoxicity were routinely employed for compounds examined in antiviral assays. Cytotoxicity produced in HFF and BSC-1 cells was estimated by visual scoring of cells not affected by virus infection in the plaque reduction assays described above. Cytopathology was estimated at 35- and 60-fold magnification and scored on a zero to four plus basis on the day of staining for plaque enumeration. Cytotoxicity in KB cells was determined by measuring the effects of compounds on the incorporation of radioactive precursors into DNA, RNA and protein as described in Turk, S. R.; Shipman, C., Jr.; Nassari, R.; Genzlinger, G.; Krawczyk, S. H.; Townsend, L. B.; Drach, J. C. Antimicrob. Agents Chemother., 1987, 31, 544.
as §3
(§5) ^b Visual cytotoxicity scored on uninfected HFF or BSC cells at time
(§6) of HCMV or HSV1 plaque determination.

The nature of series [4]: Visual cytotoxicity in uninfected BSC-1 cells. The note with it: african green monkey, visual cytotoxicity scored on uninfected BSC cells at time of HSV1 plaque determination, read-out: 50% Inhibitory Concentration, Cytotoxicity: BSC. In kind it is cell-based. The protocol:
as §1, §4, §3, §5, §6

Series [5] in a line: Cytotoxicity in KB cells (inhibition of DNA, RNA and protein synthesis). In kind it is cell-based. The note with it: human, average of inhibition of DNA, read-out: 50% Inhibitory Concentration, Cytotoxicity: KB. On the procedure:
as §1, §4, §3
^c Average percent inhibition of DNA, RNA and protein synthesis
determined in KB cells as described in the text.

The test system of series [6] is Human Immunodeficiency Virus Type 1 (HIV-1). Nature of the series: CPE-inhibition assay with HIV-1 in ATH8 cells. The note with it: Human immunodeficiency virus 1, ATH-8, 240 h, read-out: 50% Inhibitory Concentration, Virus Tested: HIV. It is filed as cell-based. On the procedure: (§7) The human OKT4^+ T-cell clone, ATH8, was obtained from Dr. Samuel Broder's laboratory (NCI) through Dr. Hiroaki Mitsuya. These cells are propagated in RPMI 1640 medium supplemented with 4 mM glutamine, 15% heat-inactivated fetal bovine serum, antibiotics (50 units of penicillin and 50 μg of streptomycin per ml), and 50 units of recombinant-derived human interleukin-2 (ala-125; AMGen Biologicals) per ml. […]
The testing of compounds for antiviral activity employed the modified CPE-inhibition assay described in Mitsuya, H.; Weinhold, K. J.; Furman, P. A.; St. Clair, M. H.; Lehrman, S. N.; Gallo, R. C.; Bolognesi, D.; Barry, D. W.; Broder, S. Proc. Natl. Acad. Sci. USA, (1985) 82, 7096 and Mitsuya, H.; Broder, S. Proc. Natl. Acad. Sci. USA, 1986, 83 1911. […] The protective effect of test compounds was assessed by adding them at varying concentrations to the cultured cells at the time of virus infection, then monitoring the status of the cell pellet.
(§8) ATH8 cells were used as the primary targeted cells in the HIV-induced CPE-inhibition assay. […] These compounds were evaluated at seven half-log dilutions. […] On day 10 post-infection aliquots were taken from individual wells and the total cell number and cell viability (based on trypan-blue dye exclusion) determined. […]

Series [7] in a line: Cytotoxicity in ATH8 cells (total cell number and viability, trypan-blue dye exclusion). It is filed as cell-based. The note with it: human; uninfected ATH8 cells; read-out: 50% Inhibitory Concentration, Cytotoxicity: ATH8. The protocol: as §7, with “ml. The clone H9 cell lines, an OKT4^+ human T-cell line which is permissive for HIV replication but largely resistant to virus-induced CPE, H9 cells productively infected with the HTLV-IIIB strain of HIV, and H9 cells productively infected with the RF-II Haitian variant of HIV have been obtained from Dr. Robert Gallo's laboratory (NCI) through Dr. Howard Streicher.” for “ml.”
as §8
Dose-response relationships were constructed by linearly regressing the percent inhibition of parameters derived in the preceding sections against log drug concentrations. 50% inhibitory (I50) concentrations were calculated from the regression lines. […]

Where [8] appears, read: Human betaherpesvirus 5, plaque reduction, HFF cells.
[9] abbreviates: Human alphaherpesvirus 1, in Chlorocebus sabaeus, plaque reduction, BSC-1 cells, both the HF and 148 strains were used.
The mark [10] stands for this setting: Human alphaherpesvirus 1, BSC-1, in Chlorocebus sabaeus.

For the molecule `N#Cc1cn([C@H]2C=C[C@@H](CO)O2)c2ncnc(N)c12` [Dideoxydidehydrotoyocamycin, 4-amino-5-cyano-7-(2',3'-dideoxy-2',3'-didehydro-β-D-glycero-pentofuranosyl)-pyrrolo[2,3-d]pyrimidine], the IC50 in series [1] (setting [8]) turned out to be 5.1 µM; in series [2] (setting [9]), 41 µM. Besides, the CC50 in series [3], in series [4] and in series [5] was greater than 100 µM throughout.
Turning to `NC(=O)c1cn([C@H]2CC[C@@H](CO)O2)c2ncnc(N)c12` [Dideosysangivamycin, 4-amino-7-(2',3'-dideoxy-β-D-ribofuranosyl)pyrrolo[2,3-d]-pyrimidine-5-carboxamide], the IC50 in series [6] is 3 µM; in series [1] (Human betaherpesvirus 5, HFF) it was greater than 100 µM; in series [2] (setting [10]), greater than 100 µM. The CC50 in series [7] was 100 µM; in series [3], greater than 100 µM; in series [4] it was greater than 100 µM; in series [5] it was greater than 100 µM.
Regarding `NC(=O)c1cn([C@H]2C=C[C@@H](CO)O2)c2ncnc(N)c12` [Dideoxydidehydrosangivamycin, 4-amino-7-(2',3'-dideoxy-2',3'-didehydro-β-D-ribofuranosyl)-pyrrolo-[2,3-d]pyrimidine-5-carboxamide], the IC50 is greater than 100 µM in series [1] (Human betaherpesvirus 5, HFF) and greater than 100 µM in series [2] (setting [10]). The CC50 in series [3] is greater than 100 µM; in series [4] it was greater than 100 µM; in series [5], 54 µM.
`Nc1ncnc2c1ccn2[C@H]1CC[C@@H](CO)O1` [Dideoxytubercidin, 4-amino-7-(2',3'-dideoxy-β-D-ribofuranosyl)pyrrolo[2,3-d]-pyrimidine]: the IC50 in series [1] (setting [8]) and in series [2] (setting [9]) was greater than 100 µM in each case. Also, the CC50 in series [3] and in series [4] was greater than 100 µM in each case.
For `N#Cc1cn([C@H]2CC[C@@H](CO)O2)c2ncnc(N)c12` [Dideoxytoyocamycin, 4-amino-5-cyano-7-(2',3'-dideoxy-β-D-ribofuranosyl)-pyrrolo-[2,3-d]-pyrimidine], the IC50 in series [6] (ATH8 cells, day 10 post-infection) came to 3 µM; in series [1] (setting [8]) it was 18 µM; in series [2] (setting [9]) it was 21 µM. The CC50 in series [7] was 100 µM; in series [3], greater than 100 µM; in series [4], greater than 100 µM; in series [5] it was 54 µM.
Turning to `Nc1ncnc2c1ccn2[C@H]1C=C[C@@H](CO)O1` [Dideoxydidehydrotubercidin, 4-amino-7(2',3'-dideoxy-2',3'-didehydro-β-ribofuranosyl)-pyrrolo[2,3-d] pyrimidine], the IC50 in series [1] (setting [8]) and in series [2] (setting [9]) was greater than 100 µM in each case. For the same molecule, the CC50 in series [3] and in series [4] was greater than 100 µM each time.
